# The source made the active and inactive calls. No cut-off for these calls is given here.
# Tests used:
# [1] = Aqueous solubility of compound after 5 hrs at 25 degC by LC-MS/MS analysis; assay type: physicochemical; details: aqueous medium (not specified further)
# [2] = n-Octanol/water partition co-efficient, log P of the compound after 4 hrs by LC-MS/MS analysis; assay type: physicochemical
# [3] = n-Octanol-PBS buffer distribution coefficient, log D of the compound after 4 hrs by LC-MS/MS analysis; assay type: physicochemical
# [4] = species on record: Rattus norvegicus; experiment: Inhibition of P-gp in rat jejuna mucosa crude membrane fractions assessed as ATPase activity preincubated for 5 mins followed by ATP addition and measured after 30 mins; assay type: cell membranes
# [5] = Protein binding in plasma (unknown origin) at 10 to 100 uM after 4 hrs by LC-MS/MS analysis; assay type: ADME, cell-free; details: read-out: PPB
# [6] = Ratio of drug level in blood to plasma (unknown origin) at 500 nM by LC-MS/MS analysis; assay type: ADME, cell-free; details: blood and plasma
# [7] = Half life in rat liver microsomes at 10 uM in presence of NADPH by LC-MS/MS analysis; assay type: ADME, Microsome
# [8] = Intrinsic clearance in rat liver microsomes assessed per mg protein at 10 uM in presence of NADPH by LC-MS/MS analysis; assay type: ADME, Microsome; details: read-out: CLH
# [9] = Hepatic intrinsic clearance in rat liver microsomes assessed per kg body weight at 10 uM in presence of NADPH by LC-MS/MS analysis; assay type: ADME, Microsome
# [10] = Hepatic clearance in rat liver microsomes at 10 uM in presence of NADPH by LC-MS/MS analysis; assay type: ADME, Microsome
# [11] = Hepatic extraction ratio in rat liver microsomes at 10 uM in presence of NADPH by LC-MS/MS analysis; assay type: ADME, Microsome; details: read-out: ERH
# [12] = Half life in human liver microsomes at 10 uM in presence of NADPH by LC-MS/MS analysis; assay type: ADME, Microsome
# [13] = Intrinsic clearance in human liver microsomes assessed per mg protein at 10 uM in presence of NADPH by LC-MS/MS analysis; assay type: ADME, Microsome; details: read-out: CLH
# [14] = Hepatic intrinsic clearance in human liver microsomes assessed per kg body weight at 10 uM in presence of NADPH by LC-MS/MS analysis; assay type: ADME, Microsome
# [15] = Hepatic clearance in human liver microsomes at 10 uM in presence of NADPH by LC-MS/MS analysis; assay type: ADME, Microsome
# [16] = Hepatic extraction ratio in human liver microsomes at 10 uM in presence of NADPH by LC-MS/MS analysis; assay type: ADME, Microsome; details: read-out: ERH
# [17] = Stability in rat liver microsomes at 10 uM in presence of NADPH by LC-MS/MS analysis; assay type: ADME, Microsome; details: read-out: Stability
# [18] = Stability in human liver microsomes at 10 uM in presence of NADPH by LC-MS/MS analysis; assay type: ADME, Microsome; details: read-out: Stability
# [19] = species on record: Rattus norvegicus; experiment: Inhibition of P-gp in rat jejuna mucosa crude membrane fractions assessed as reduction in ATPase activity preincubated for 5 mins followed by ATP addition and measured after 30 mins; assay type: cell membranes
solubility at 5 h [1],logP at 4 h [2],logD at 4 h [3],Activity [4],"fraction unbound at 4 h, up to 100 µM [5]",blood plasma ratio at 0.5 µM [6],half-life at 10 µM [7],microsomal CLint at 10 µM [8],CLH [9],CLH [10],hepatic extraction ratio at 10 µM [11],half-life at 10 µM [12],microsomal CLint at 10 µM [13],CLH [14],CLH [15],hepatic extraction ratio at 10 µM [16],remaining at 10 µM [17],remaining at 10 µM [18],inhibition [19],Compound
5.8 µg/mL,1.06,0.08,5.5 to 6.1 µM/min,< 0.01,≤ 1.4,1.16 h,20 µL/min/mg,35.9 mL/min/kg,21.7 mL/min/kg,0.39,1.35 h,19 µL/min/mg,22.3 mL/min/kg,10.6 mL/min/kg,0.5,> 73%,> 73%,–,CCCCCCCC(c1cn([C@@H]2O[C@H](CO)[C@@H](O)[C@H](O)[C@H]2O)c2ccc(Br)cc12)c1cn([C@@H]2O[C@H](CO)[C@@H](O)[C@H](O)[C@H]2O)c2ccc(Br)cc12
–,–,–,–,–,–,–,–,–,–,–,–,–,–,–,–,–,–,Active,O[C@@H](COc1cccc2ncccc12)CN1CCN([C@@H]2c3ccccc3[C@@H]3[C@H](c4ccccc42)C3(F)F)CC1
–,–,–,–,–,≤ 1.2,–,–,–,–,–,–,–,–,–,–,–,–,–,CC(C)NCC(O)COc1ccc(CC(N)=O)cc1 (stereo not given) [ATENOLOL]

# Reference: ChEMBL document CHEMBL4400544, “Pharmacokinetic evaluation of medicinally important synthetic N,N' diindolylmethane glucoside: Improved synthesis and metabolic stability” (Bioorg Med Chem Lett, 2019)
